{"source": "patent US7205382B2", "about": "“Peptides, the production and use thereof for binding immunoglobulins” (Fresenius Medical Care Affina GmbH, priority 2000, dated 2007)", "format_in_all_cases": "binding", "parameters_in_all_cases": "key: No binding of immunoglobulin for the defined peptide variant, detection negative: 0; Binding of immunoglobulin for the defined peptide variant, detection positive: +", "key": {"human IgG-Fc": {"system": "human IgG-Fc", "test": "Cellulose-immobilized 13-mer peptide variants incubated with human IgG-Fc, anti-human IgG-AP detection", "conditions": "IgG-Fc 1 μg/ml in blocking buffer, 3 h room temperature", "outline": "(§1)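 Spot membrane, (βA)(βA) spacer; T-TBS pH 8.0 wash, block 5% saccharose/4% BSA. 3 h RT with IgG-Fc 1 μg/ml, serum 1:10,000, or block buffer only (specificity control). 3× wash, AP-anti-human IgG 1.2 μg/ml, NBT/BCIP in pH 9.5 buffer.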"}, "[1]": {"system": "immunoglobulins in human plasma", "test": "Cellulose-immobilized 13-mer peptide variants incubated with human plasma, anti-human IgG-AP detection", "conditions": "human plasma as sample, diluted 1:10,000 in blocking buffer, 3 h room temperature", "outline": "as §1"}, "serum albumin": {"system": "serum albumin", "test": "Cellulose-immobilized 13-mer peptide variants incubated with serum albumin (negative control), anti-human IgG-AP detection", "conditions": "blocking buffer without addition, 3 h room temperature", "outline": "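Peptides on cellulose via a (βA)(βA) spacer were blocked in T-TBS (pH 8.0) with 5% saccharose and 4% BSA, then exposed for 3 h at room temperature to IgG-Fc (1 μg/ml), serum diluted 1:10,000, or blocking buffer alone. Bound IgG was detected with AP-anti-human IgG (1.2 μg/ml) and NBT/BCIP colour development.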"}}, "note": "Bridge positions count the residues as written; N and C are the ends. Square brackets hold non-standard residues; d marks the D form. Ends that are not written are not given here. cellulose = not defined here; βAla = NCCC(=O)O"}
{"substance": "04Y: cellulose-bound 13-mer variant DCAYHLGELVWCT-(βA)(βA) (disulfide 2-12 (inferred); not fully specified (N-terminus, C-terminus); printed as DCAYHLGELVWCT-(βA)(βA); also: cellulose-bound)", "values": [{"measurement": "Result for incubation with human IgG-Fc (immunoglobulin binding detection)", "setting": "human IgG-Fc", "result": "+"}, {"measurement": "Result for incubation with human plasma (immunoglobulin binding detection)", "setting": "[1]", "result": "+"}, {"measurement": "Result for incubation with serum albumin (immunoglobulin binding detection)", "setting": "serum albumin", "result": 0}]}
{"substance": "05R: cellulose-bound 13-mer variant DCAWRLGELVWCT-(βA)(βA) (disulfide 2-12 (inferred); not fully specified (N-terminus, C-terminus); printed as DCAWRLGELVWCT-(βA)(βA); also: cellulose-bound)", "values": [{"measurement": "Result for incubation with human IgG-Fc (immunoglobulin binding detection)", "setting": "human IgG-Fc", "result": 0}, {"measurement": "Result for incubation with human plasma (immunoglobulin binding detection)", "setting": "[1]", "result": 0}, {"measurement": "Result for incubation with serum albumin (immunoglobulin binding detection)", "setting": "serum albumin", "result": 0}]}
{"substance": "04K: cellulose-bound 13-mer variant DCAKHLGELVWCT-(βA)(βA) (DCAKHLGELVWCT[βAla][βAla]; disulfide 2-12 (inferred); also: cellulose-bound)", "values": [{"measurement": "Result for incubation with human IgG-Fc (immunoglobulin binding detection)", "setting": "human IgG-Fc", "result": "+"}, {"measurement": "Result for incubation with human plasma (immunoglobulin binding detection)", "setting": "[1]", "result": "+"}, {"measurement": "Result for incubation with serum albumin (immunoglobulin binding detection)", "setting": "serum albumin", "result": 0}]}
{"substance": "04H: cellulose-bound 13-mer variant DCAHHLGELVWCT-(βA)(βA) (DCAHHLGELVWCT[βAla][βAla]; disulfide 2-12 (inferred); also: cellulose-bound)", "values": [{"measurement": "Result for incubation with human IgG-Fc (immunoglobulin binding detection)", "setting": "human IgG-Fc", "result": "+"}, {"measurement": "Result for incubation with human plasma (immunoglobulin binding detection)", "setting": "[1]", "result": "+"}, {"measurement": "Result for incubation with serum albumin (immunoglobulin binding detection)", "setting": "serum albumin", "result": 0}]}
{"substance": "01R: cellulose-bound 13-mer variant RCAWHLGELVWCT-(βA)(βA) (RCAWHLGELVWCT-{βAla-βAla-cellulose}; disulfide 2-12 (inferred); reading uncertain; also: printed as RCAWHLGELVWCT-(βA)(βA))", "values": [{"measurement": "Result for incubation with human IgG-Fc (immunoglobulin binding detection)", "setting": "human IgG-Fc", "result": "+"}, {"measurement": "Result for incubation with human plasma (immunoglobulin binding detection)", "setting": "[1]", "result": 0}, {"measurement": "Result for incubation with serum albumin (immunoglobulin binding detection)", "setting": "serum albumin", "result": 0}]}
{"substance": "08L: cellulose-bound 13-mer variant DCAWHLGLLVWCT-(βA)(βA) (DCAWHLGLLVWCT-{βAla-βAla-cellulose}; disulfide 2-12 (inferred); not fully specified (N-terminus); printed as DCAWHLGLLVWCT-(βA)(βA); reading uncertain)", "values": [{"measurement": "Result for incubation with human IgG-Fc (immunoglobulin binding detection)", "setting": "human IgG-Fc", "result": 0}, {"measurement": "Result for incubation with human plasma (immunoglobulin binding detection)", "setting": "[1]", "result": 0}, {"measurement": "Result for incubation with serum albumin (immunoglobulin binding detection)", "setting": "serum albumin", "result": 0}]}
{"substance": "01C: cellulose-bound 13-mer variant CCAWHLGELVWCT-(βA)(βA) (CCAWHLGELVWCT[βAla][βAla]; cysteine pairing not given here; also: bound to cellulose support)", "values": [{"measurement": "Result for incubation with human IgG-Fc (immunoglobulin binding detection)", "setting": "human IgG-Fc", "result": 0}, {"measurement": "Result for incubation with human plasma (immunoglobulin binding detection)", "setting": "[1]", "result": 0}, {"measurement": "Result for incubation with serum albumin (immunoglobulin binding detection)", "setting": "serum albumin", "result": 0}]}
{"substance": "11G: cellulose-bound 13-mer variant DCAWHLGELVGCT-(βA)(βA)", "values": [{"measurement": "Result for incubation with human IgG-Fc (immunoglobulin binding detection)", "setting": "human IgG-Fc", "result": 0}, {"measurement": "Result for incubation with human plasma (immunoglobulin binding detection)", "setting": "[1]", "result": 0}, {"measurement": "Result for incubation with serum albumin (immunoglobulin binding detection)", "setting": "serum albumin", "result": 0}]}
{"substance": "07S: cellulose-bound 13-mer variant DCAWHLSELVWCT-(βA)(βA) (DCAWHLSELVWCT-{βAla-βAla-cellulose}; disulfide 2-12 (inferred); not fully specified (N-terminus); printed as DCAWHLSELVWCT-(βA)(βA); reading uncertain)", "values": [{"measurement": "Result for incubation with human IgG-Fc (immunoglobulin binding detection)", "setting": "human IgG-Fc", "result": 0}, {"measurement": "Result for incubation with human plasma (immunoglobulin binding detection)", "setting": "[1]", "result": 0}, {"measurement": "Result for incubation with serum albumin (immunoglobulin binding detection)", "setting": "serum albumin", "result": 0}]}
{"substance": "01F: cellulose-bound 13-mer variant FCAWHLGELVWCT-(βA)(βA) (FCAWHLGELVWCT-{βAla-βAla-cellulose}; disulfide 2-12 (inferred); reading uncertain; also: printed as FCAWHLGELVWCT-(βA)(βA))", "values": [{"measurement": "Result for incubation with human IgG-Fc (immunoglobulin binding detection)", "setting": "human IgG-Fc", "result": 0}, {"measurement": "Result for incubation with human plasma (immunoglobulin binding detection)", "setting": "[1]", "result": 0}, {"measurement": "Result for incubation with serum albumin (immunoglobulin binding detection)", "setting": "serum albumin", "result": 0}]}
{"substance": "08Y: cellulose-bound 13-mer variant DCAWHLGYLVWCT-(βA)(βA) (DCAWHLGYLVWCT-{βAla-βAla-cellulose}; disulfide 2-12 (inferred); reading uncertain; also: printed as DCAWHLGYLVWCT-(βA)(βA))", "values": [{"measurement": "Result for incubation with human IgG-Fc (immunoglobulin binding detection)", "setting": "human IgG-Fc", "result": 0}, {"measurement": "Result for incubation with human plasma (immunoglobulin binding detection)", "setting": "[1]", "result": 0}, {"measurement": "Result for incubation with serum albumin (immunoglobulin binding detection)", "setting": "serum albumin", "result": 0}]}
{"substance": "08T: cellulose-bound 13-mer variant DCAWHLGTLVWCT-(βA)(βA) (DCAWHLGTLVWCT-{βAla-βAla-cellulose}; disulfide 2-12 (inferred); reading uncertain; also: printed as DCAWHLGTLVWCT-(βA)(βA))", "values": [{"measurement": "Result for incubation with human IgG-Fc (immunoglobulin binding detection)", "setting": "human IgG-Fc", "result": 0}, {"measurement": "Result for incubation with human plasma (immunoglobulin binding detection)", "setting": "[1]", "result": 0}, {"measurement": "Result for incubation with serum albumin (immunoglobulin binding detection)", "setting": "serum albumin", "result": 0}]}
{"substance": "11L: cellulose-bound 13-mer variant DCAWHLGELVLCT-(βA)(βA)", "values": [{"measurement": "Result for incubation with human IgG-Fc (immunoglobulin binding detection)", "setting": "human IgG-Fc", "result": 0}, {"measurement": "Result for incubation with human plasma (immunoglobulin binding detection)", "setting": "[1]", "result": 0}, {"measurement": "Result for incubation with serum albumin (immunoglobulin binding detection)", "setting": "serum albumin", "result": 0}]}
{"substance": "06D: cellulose-bound 13-mer variant DCAWHDGELVWCT-(βA)(βA) (DCAWHDGELVWCT[βAla][βAla]; disulfide 2-12 (inferred); not fully specified (N-terminus); printed as DCAWHDGELVWCT-(βA)(βA); also: cellulose-bound)", "values": [{"measurement": "Result for incubation with human IgG-Fc (immunoglobulin binding detection)", "setting": "human IgG-Fc", "result": "+"}, {"measurement": "Result for incubation with human plasma (immunoglobulin binding detection)", "setting": "[1]", "result": 0}, {"measurement": "Result for incubation with serum albumin (immunoglobulin binding detection)", "setting": "serum albumin", "result": 0}]}
{"substance": "10H: cellulose-bound 13-mer variant DCAWHLGELHWCT-(βA)(βA) (DCAWHLGELHWCT-{βAla-βAla-cellulose}; disulfide 2-12 (inferred); reading uncertain; also: printed as DCAWHLGELHWCT-(βA)(βA))", "values": [{"measurement": "Result for incubation with human IgG-Fc (immunoglobulin binding detection)", "setting": "human IgG-Fc", "result": 0}, {"measurement": "Result for incubation with human plasma (immunoglobulin binding detection)", "setting": "[1]", "result": 0}, {"measurement": "Result for incubation with serum albumin (immunoglobulin binding detection)", "setting": "serum albumin", "result": 0}]}
{"substance": "11V: cellulose-bound 13-mer variant DCAWHLGELVVCT-(βA)(βA)", "values": [{"measurement": "Result for incubation with human IgG-Fc (immunoglobulin binding detection)", "setting": "human IgG-Fc", "result": 0}, {"measurement": "Result for incubation with human plasma (immunoglobulin binding detection)", "setting": "[1]", "result": 0}, {"measurement": "Result for incubation with serum albumin (immunoglobulin binding detection)", "setting": "serum albumin", "result": 0}]}
{"substance": "11Y: cellulose-bound 13-mer variant DCAWHLGELVYCT-(βA)(βA)", "values": [{"measurement": "Result for incubation with human IgG-Fc (immunoglobulin binding detection)", "setting": "human IgG-Fc", "result": 0}, {"measurement": "Result for incubation with human plasma (immunoglobulin binding detection)", "setting": "[1]", "result": 0}, {"measurement": "Result for incubation with serum albumin (immunoglobulin binding detection)", "setting": "serum albumin", "result": 0}]}
{"substance": "06I: cellulose-bound 13-mer variant DCAWHIGELVWCT-(βA)(βA) (DCAWHIGELVWCT-{βAla-βAla-cellulose}; disulfide 2-12 (inferred); not fully specified (N-terminus); printed as DCAWHIGELVWCT-(βA)(βA); reading uncertain)", "values": [{"measurement": "Result for incubation with human IgG-Fc (immunoglobulin binding detection)", "setting": "human IgG-Fc", "result": 0}, {"measurement": "Result for incubation with human plasma (immunoglobulin binding detection)", "setting": "[1]", "result": 0}, {"measurement": "Result for incubation with serum albumin (immunoglobulin binding detection)", "setting": "serum albumin", "result": 0}]}
{"substance": "02H: cellulose-bound 13-mer variant DHAWHLGELVWCT-(βA)(βA) (DHAWHLGELVWCT[βAla][βAla]; not fully specified; printed as DHAWHLGELVWCT-(βA)(βA); also: cellulose-bound)", "values": [{"measurement": "Result for incubation with human IgG-Fc (immunoglobulin binding detection)", "setting": "human IgG-Fc", "result": 0}, {"measurement": "Result for incubation with human plasma (immunoglobulin binding detection)", "setting": "[1]", "result": 0}, {"measurement": "Result for incubation with serum albumin (immunoglobulin binding detection)", "setting": "serum albumin", "result": 0}]}
{"substance": "07V: cellulose-bound 13-mer variant DCAWHLVELVWCT-(βA)(βA) (DCAWHLVELVWCT-{βAla-βAla-cellulose}; disulfide 2-12 (inferred); not fully specified (N-terminus); printed as DCAWHLVELVWCT-(βA)(βA); reading uncertain)", "values": [{"measurement": "Result for incubation with human IgG-Fc (immunoglobulin binding detection)", "setting": "human IgG-Fc", "result": 0}, {"measurement": "Result for incubation with human plasma (immunoglobulin binding detection)", "setting": "[1]", "result": 0}, {"measurement": "Result for incubation with serum albumin (immunoglobulin binding detection)", "setting": "serum albumin", "result": 0}]}
{"substance": "03D: cellulose-bound 13-mer variant DCDWHLGELVWCT-(βA)(βA) (DCDWHLGELVWCT-{βAla-βAla-cellulose}; disulfide 2-12 (inferred); reading uncertain; also: printed as DCDWHLGELVWCT-(βA)(βA))", "values": [{"measurement": "Result for incubation with human IgG-Fc (immunoglobulin binding detection)", "setting": "human IgG-Fc", "result": 0}, {"measurement": "Result for incubation with human plasma (immunoglobulin binding detection)", "setting": "[1]", "result": 0}, {"measurement": "Result for incubation with serum albumin (immunoglobulin binding detection)", "setting": "serum albumin", "result": 0}]}
